Here are results for 18 compounds from patent publication US20250115598A1 (Anaxis Pharma Pty Ltd, priority 2021, published 2025).

Structures are written as SMILES.

Assay [1] addresses human MLKL (full length) (Homo sapiens (Human), UniProt Q8NB16). The experiment in a line: KINOMEscan binding assay, human MLKL (full length). The conditions noted are these: KINOMEscan, Table 21; read-out: Human MLKL (full-length) (KD). How it is done:
Binding affinity of the test compounds for human MLKL (full length), mouse MLKL (full length), human RIPK1 and human RIPK3 was determined using the KINOMEscan™ technology developed by DiscoverX (USA; http://www.discoverx.com). The assay was conducted according to manufacturer instructions.
Kinase assays. For most assays, kinase-tagged T7 phage strains were grown in parallel in 24-well blocks in an E. coli host derived from the BL21 strain. E. coli were grown to log-phase and infected with T7 phage from a frozen stock (multiplicity of infection=0.4) and incubated with shaking at 32° C. until lysis (90-150 minutes). The lysates were centrifuged (6,000×g) and filtered (0.2 μm) to remove cell debris. The remaining kinases were produced in HEK-293 cells and subsequently tagged with DNA for qPCR detection. […] The liganded beads were blocked with excess biotin and washed with blocking buffer (SeaBlock (Pierce), 1% BSA, 0.05% Tween 20, 1 mM DTT) to remove unbound ligand and to reduce non-specific phage binding. […] All reactions were performed in polypropylene 384-well plates in a final volume of 20 μL. […] The kinase concentration in the eluates was measured by qPCR.
An 11-point 3-fold serial dilution of each test compound was prepared in 100% DMSO at 100× final test concentration and subsequently diluted to 1× in the assay (final DMSO concentration=1%). Most Kos were determined using a compound top concentration=30,000 nM.
KD for each test compound was calculated with a standard dose-response curve using the Hill equation (equation (1)): […]
The Hill Slope was set to −1.
Curves were fitted using a non-linear least square fit with the Levenberg-Marquardt algorithm.

Assay [2] addresses human RIPK1 (Homo sapiens (Human), UniProt Q13546). Put plainly: KINOMEscan binding assay, human RIPK1. To be noted: Table 21. A digest of the protocol:
(§1)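 Binding constants were derived by fitting qPCR-quantified bead-retained kinase against compound concentration to the Hill equation, slope set at −1. Compound series were 3-fold over 11 points with 1% DMSO; most top concentrations were 30,000 nM. Kinases were T7-phage-tagged or HEK-293-produced with DNA tags.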

Assay [3] addresses human RIPK3 (Homo sapiens (Human), UniProt Q9Y572). Put plainly: KINOMEscan binding assay, human RIPK3. To be noted: Table 21. A digest of the protocol:
as §1

human RIPK3, sequence (Q9Y572 whole entry): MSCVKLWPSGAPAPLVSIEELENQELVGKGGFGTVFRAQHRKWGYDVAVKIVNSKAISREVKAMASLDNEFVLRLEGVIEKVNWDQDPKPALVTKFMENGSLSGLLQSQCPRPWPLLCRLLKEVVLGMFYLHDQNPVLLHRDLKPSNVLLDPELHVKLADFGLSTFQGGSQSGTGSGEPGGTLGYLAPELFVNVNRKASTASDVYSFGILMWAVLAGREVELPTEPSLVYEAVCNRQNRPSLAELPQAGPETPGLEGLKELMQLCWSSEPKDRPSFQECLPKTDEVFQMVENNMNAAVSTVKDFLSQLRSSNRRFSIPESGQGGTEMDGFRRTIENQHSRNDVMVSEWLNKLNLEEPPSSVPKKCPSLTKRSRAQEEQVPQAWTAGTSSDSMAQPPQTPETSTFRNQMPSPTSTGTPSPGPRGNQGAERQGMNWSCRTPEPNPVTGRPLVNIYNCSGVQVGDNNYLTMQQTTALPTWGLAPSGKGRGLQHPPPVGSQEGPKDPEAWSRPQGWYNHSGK
human RIPK1, sequence (Q13546 whole entry): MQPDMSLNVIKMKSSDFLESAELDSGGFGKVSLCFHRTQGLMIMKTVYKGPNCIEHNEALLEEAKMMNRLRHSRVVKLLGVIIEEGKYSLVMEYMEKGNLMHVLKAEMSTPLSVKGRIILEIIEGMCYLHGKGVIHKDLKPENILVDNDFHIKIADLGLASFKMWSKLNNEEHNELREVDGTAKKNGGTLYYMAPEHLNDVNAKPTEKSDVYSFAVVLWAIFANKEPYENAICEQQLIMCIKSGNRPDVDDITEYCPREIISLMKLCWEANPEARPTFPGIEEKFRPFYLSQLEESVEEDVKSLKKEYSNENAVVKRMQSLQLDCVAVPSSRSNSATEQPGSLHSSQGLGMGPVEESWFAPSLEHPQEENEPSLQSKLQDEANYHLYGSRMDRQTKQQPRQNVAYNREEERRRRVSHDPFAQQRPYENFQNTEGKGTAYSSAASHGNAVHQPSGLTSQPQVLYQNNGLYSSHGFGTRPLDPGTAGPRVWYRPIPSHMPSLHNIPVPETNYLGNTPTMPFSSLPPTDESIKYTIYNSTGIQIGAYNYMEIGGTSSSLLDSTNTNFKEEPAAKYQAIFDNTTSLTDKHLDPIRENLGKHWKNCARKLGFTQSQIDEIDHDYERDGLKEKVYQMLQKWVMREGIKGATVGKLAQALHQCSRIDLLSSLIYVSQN
human MLKL (full length), sequence (Q8NB16 whole entry): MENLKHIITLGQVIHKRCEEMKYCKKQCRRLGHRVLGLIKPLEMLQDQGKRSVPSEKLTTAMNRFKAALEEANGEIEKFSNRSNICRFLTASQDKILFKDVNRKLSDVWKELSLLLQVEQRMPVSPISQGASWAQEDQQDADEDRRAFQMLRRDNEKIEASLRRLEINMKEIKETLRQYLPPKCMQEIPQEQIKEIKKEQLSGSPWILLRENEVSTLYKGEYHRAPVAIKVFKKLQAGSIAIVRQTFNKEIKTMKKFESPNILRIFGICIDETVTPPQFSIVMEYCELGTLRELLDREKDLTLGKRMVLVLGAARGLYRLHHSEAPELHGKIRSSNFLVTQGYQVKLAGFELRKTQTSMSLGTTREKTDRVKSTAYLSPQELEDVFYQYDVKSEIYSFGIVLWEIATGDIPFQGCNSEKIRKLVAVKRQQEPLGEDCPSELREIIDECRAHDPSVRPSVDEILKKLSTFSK

Take `COCC(Oc1cc(-c2nn(C)c3c(-c4cnn(C5CCOCC5)c4)cnc(N)c23)ccc1NS(=O)(=O)C(F)F)c1ccc(F)cc1` (racemic) [Compound 102, N-(4-(4-amino-1-methyl-7-(1-(tetrahydro-2H-pyran-4-yl)-1H-pyrazol-4-yl)-1H-pyrazolo[4,3-c]pyridin-3-yl)-2-(1-(4-fluorophenyl)-2-methoxyethoxy)phenyl)-1,1-difuoromethane-sulfonamide]: the Kd was less than 0.001 µM in assay [1], greater than 10 µM in assay [2] and greater than 10 µM in assay [3].
With `CCS(=O)(=O)Nc1ccc(-c2coc3c(-c4cnn(C5CCOCC5)c4)cnc(N)c23)cc1OCc1ccc(F)cc1` [Compound 3, N-(4-(4-amino-7-(1-(tetrahydro-2H-pyran-4-yl)-1H-pyrazol-4-yl)furo[3,2-c]pyridin-3-yl)-2-((4-fluorobenzyl)oxy)phenyl)ethanesulfonamide], the Kd in assay [1] is less than 0.001 µM; in assay [2] it was greater than 10 µM; in assay [3], greater than 10 µM.
For `Nc1ncc(-c2cnn(CCO)c2)c2occ(-c3ccc(NS(=O)(=O)C(F)F)c(OCc4ccc(F)cc4)c3)c12` [Compound 6, N-(4-(4-amino-7-(1-(2-hydroxyethyl)-1H-pyrazol-4-yl)furo[3,2-c]pyridin-3-yl)-2-((4-fluorobenzyl)oxy)phenyl)-1,1-difluoro-methanesulfonamide], the figures for the dissociation constant (Kd) in assay [1], in assay [2] and in assay [3] were less than 0.001 µM, greater than 10 µM and greater than 10 µM, respectively.
On to `C[C@H](Oc1cc(-c2coc3c(-c4cnn(CCO)c4)cnc(N)c23)ccc1NS(=O)(=O)C(F)F)c1ccc(F)cc1` [Compound 9, (S)-N-(4-(4-amino-7-(1-(2-hydroxyethyl)-1H-pyrazol-4-yl)furo[3,2-c]pyridin-3-yl)-2-(1-(4-fluoro-phenyl)eth-oxy)phenyl)-1,1-difluoromethane-sulfonamide], for which the dissociation constant Kd is less than 0.001 µM in assay [1], greater than 10 µM in assay [2] and greater than 10 µM in assay [3].
On to `Cn1cc(-c2cnc(N)c3c(-c4ccc(NS(=O)(=O)C(F)F)c(OCc5ccc(F)cc5)c4)nn(C)c23)cn1` [Compound 16, N-(4-(4-amino-1-methyl-7-(1-methyl-1H-pyrazol-4-yl)-1H-pyrazolo[4,3-c]pyridin-3-yl)-2-((4-fluoro-benzyl)oxy)phenyl)-1,1-difluoromethane-sulfonamide], for which the figures for the Kd in assay [1], in assay [2] and in assay [3] were less than 0.001 µM, greater than 10 µM and greater than 10 µM, respectively.
In the case of `C[C@H](Oc1cc(-c2nn(C)c3ccnc(N)c23)ccc1NS(=O)(=O)C(F)F)c1ccc(F)cc1` [Compound 17, N-(4-{4-amino-1-methyl-1H-pyrazolo[4,3-c]pyridin-3-yl}-2-[(1S)-1-(4-fluorophenyl)ethoxy]phenyl)-1,1-difluoromethanesulfonamide], the Kd in assay [1] is less than 0.001 µM; in assay [2], greater than 10 µM; in assay [3], greater than 10 µM.
For the compound `C[C@H](Oc1cc(-c2nn(C)c3c(-c4ccncc4)cnc(N)c23)ccc1NS(=O)(=O)C(F)F)c1ccc(F)cc1` [Compound 18, (S)-N-(4-(4-amino-1-methyl-7-(pyridin-4-yl)-1H-pyrazolo[4,3-c]pyridin-3-yl)-2-(1-(4-fluorophenyl)ethoxy)phenyl)-1,1-difluoromethanesulfonamide], the equilibrium dissociation constant (Kd) in assay [1] was less than 0.001 µM; in assay [2], greater than 10 µM; in assay [3], greater than 10 µM.
Turning to `C[C@H](Oc1cc(-c2nn(C)c3c(C4=CCN(C)CC4)cnc(N)c23)ccc1NS(=O)(=O)C(F)F)c1ccc(F)cc1` [Compound 21, (S)-N-(4-(4-amino-1-methyl-7-(1-methyl-1,2,3,6-tetrahydropyridin-4-yl)-1H-pyrazolo[4,3-c]pyridin-3-yl)-2-(1-(4-fluorophenyl)ethoxy)phenyl)-1,1-difluoromethanesulfonamide], the Kd in assay [1] was less than 0.001 µM; in assay [2], greater than 10 µM; in assay [3] it was greater than 10 µM.
Take `Cc1cc(-c2cnc(N)c3c(-c4ccc(NS(=O)(=O)C(F)F)c(O[C@@H](C)c5ccc(F)cc5)c4)nn(C)c23)ccn1` [Compound 24, (S)-N-(4-(4-amino-1-methyl-7-(2-methylpyridin-4-yl)-1H-pyrazolo[4,3-c]pyridin-3-yl)-2-(1-(4-fluorophenyl)ethoxy)phenyl)-1,1-difluoromethanesulfonamide]: the values for the Kd in assay [1], in assay [2] and in assay [3] were less than 0.001 µM, greater than 10 µM and greater than 10 µM, respectively.
Take `C[C@H](Oc1cc(-c2nn(C)c3c(-c4cccnc4)cnc(N)c23)ccc1NS(=O)(=O)C(F)F)c1ccc(F)cc1` [Compound 25, (S)-N-(4-(4-amino-1-methyl-7-(pyridin-3-yl)-1H-pyrazolo[4,3-c]pyridin-3-yl)-2-(1-(4-fluorophenyl)ethoxy)phenyl)-1,1-difluoromethanesulfonamide]: the Kd in assay [1] is less than 0.001 µM; in assay [2] it was greater than 10 µM; in assay [3], greater than 10 µM.
`Cc1ccc(-c2cnc(N)c3c(-c4ccc(NS(=O)(=O)C(F)F)c(O[C@@H](C)c5ccc(F)cc5)c4)nn(C)c23)cn1` [Compound 26, (S)-N-(4-(4-amino-1-methyl-7-(6-methylpyridin-3-yl)-1H-pyrazolo[4,3-c]pyridin-3-yl)-2-(1-(4-fluorophenyl)ethoxy)phenyl)-1,1-difluoromethanesulfonamide]: the results for the Kd in assay [1], in assay [2] and in assay [3] were less than 0.001 µM, greater than 10 µM and greater than 10 µM, respectively.
As for `COc1ccc(-c2cnc(N)c3c(-c4ccc(NS(=O)(=O)C(F)F)c(O[C@@H](C)c5ccc(F)cc5)c4)nn(C)c23)cn1` [Compound 28, (S)-N-(4-(4-amino-7-(6-methoxypyridin-3-yl)-1-methyl-1H-pyrazolo[4,3-c]pyridin-3-yl)-2-(1-(4-fluorophenyl)ethoxy)phenyl)-1,1-difluoromethanesulfonamide], the Kd was less than 0.001 µM in assay [1], greater than 10 µM in assay [2] and greater than 10 µM in assay [3].
`COCCn1cc(-c2cnc(N)c3c(-c4ccc(NS(=O)(=O)C(F)F)c(O[C@@H](C)c5ccc(F)cc5)c4)nn(C)c23)cn1` [Compound 29, (S)-N-(4-(4-amino-7-(1-(2-methoxyethyl)-1H-pyrazol-4-yl)-1-methyl-1H-pyrazolo[4,3-c]pyridin-3-yl)-2-(1-(4-fluorophenyl)ethoxy)phenyl)-1,1-difluoromethanesulfonamide]: the dissociation constant Kd in assay [1] was less than 0.001 µM; in assay [2], greater than 10 µM; in assay [3], greater than 10 µM.
Turning to `CC(C)n1cc(-c2cnc(N)c3c(-c4ccc(NS(=O)(=O)C(F)F)c(O[C@@H](C)c5ccc(F)cc5)c4)nn(C)c23)cn1` [Compound 31, (S)-N-(4-(4-amino-7-(1-isopropyl-1H-pyrazol-4-yl)-1-methyl-1H-pyrazolo[4,3-c]pyridin-3-yl)-2-(1-(4-fluorophenyl)ethoxy)phenyl)-1,1-difluoromethanesulfonamide], the Kd was less than 0.001 µM in assay [1], greater than 10 µM in assay [2] and greater than 10 µM in assay [3].
In the case of `C[C@H](Oc1cc(-c2cnn3c(-c4cnn(C)c4)cnc(N)c23)ccc1NS(=O)(=O)C(F)F)c1ccc(F)cc1` [Compound 35, (S)-N-(4-(4-amino-7-(1-methyl-1H-pyrazol-4-yl)pyrazolo[1,5-a]pyrazin-3-yl)-2-(1-(4-fluorophenyl)ethoxy)phenyl)-1,1-difluoromethane-sulfonamide], the results for the Kd in assay [1], in assay [2] and in assay [3] were less than 0.001 µM, greater than 10 µM and greater than 10 µM, respectively.
Turning to `C[C@H](Oc1cc(-c2nn(C)c3c(-c4ccc5c(cnn5C)c4)cnc(N)c23)ccc1NS(=O)(=O)C(F)F)c1ccc(F)cc1` [Compound 166, (S)-N-(4-(4-amino-1-methyl-7-(1-methyl-1H-indazol-5-yl)-1H-pyrazolo[4,3-c]pyridin-3-yl)-2-(1-(4-fluorophenyl)ethoxy)phenyl)-1,1-difluoromethanesulfonamide], the Kd in assay [2] and in assay [3] was greater than 10 µM each time.
Regarding `C[C@H](Oc1cc(-c2nn(C)c3c(-c4cnn(C5CCN(CC(F)(F)F)C(C)(C)C5)c4)cnc(N)c23)ccc1NS(=O)(=O)C(F)F)c1ccc(F)cc1` (stereo partly drawn) [Compound 167, N-(4-(4-amino-7-(1-(2,2-dimethyl-1-(2,2,2-trifluoroethyl)piperidin-4-yl)-1H-pyrazol-4-yl)-1-methyl-1H-pyrazolo[4,3-c]pyridin-3-yl)-2-((S)-1-(4-fluorophenyl)ethoxy)phenyl)-1,1-difluoromethanesulfonamide], the Kd in assay [2] and in assay [3] was greater than 10 µM each time.
`CC1CN(C)CC(C)C1n1cc(-c2cnc(N)c3c(-c4ccc(NS(=O)(=O)C(F)F)c(O[C@@H](C)c5ccc(F)cc5)c4)nn(C)c23)cn1` (stereo partly drawn) [Compound 172, N-(4-(4-amino-1-methyl-7-[1-(1,3,5-trimethylpiperidin-4-yl)-1H-pyrazol-4-yl]-1H-pyrazolo[4,3-c]pyridin-3-yl}-2-[(1S)-1-(4-fluorophenyl)ethoxy]phenyl)-1,1-difluoromethanesulfonamide]: the results for the Kd in assay [2] and in assay [3] were 0.1 to 10 µM and greater than 10 µM, respectively.
